Common to all, as to format: cell-based
Experiment [1] deals with T1, mouse TGR5 receptor (Mus musculus, UniProt Q80SS6).
T1 construct: host or cells: HEK293-EBNA (293 c18, ATCC CRL10852)
T1 sequence (Q80SS6 1-329): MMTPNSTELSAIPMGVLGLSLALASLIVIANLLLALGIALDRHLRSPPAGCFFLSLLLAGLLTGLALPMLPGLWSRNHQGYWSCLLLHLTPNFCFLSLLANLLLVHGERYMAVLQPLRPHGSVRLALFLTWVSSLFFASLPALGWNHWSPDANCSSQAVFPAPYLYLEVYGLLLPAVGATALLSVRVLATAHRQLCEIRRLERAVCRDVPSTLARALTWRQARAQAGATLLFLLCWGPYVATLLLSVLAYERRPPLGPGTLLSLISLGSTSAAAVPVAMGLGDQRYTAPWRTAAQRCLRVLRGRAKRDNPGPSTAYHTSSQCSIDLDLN
Description: Mouse TGR5 luminescent cAMP production assay (HEK293-EBNA cells, DiscoveRx cAMP XS+ kit). The following applies: HEK293-EBNA cells overexpressing mouse TGR5, luminescent cAMP assay; read-out: Mouse TGR5 Lum. cAMP Activity (EC50). The method in brief:
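HEK293-EBNA cells stably expressing mouse TGR5, resuspended in serum-free DMEM with 500 μM IBMX, were premixed 20 min with cAMP antibody, then exposed to half-log compound dilutions for 1 h at room temperature. cAMP was read by luminescent enzyme-fragment complementation (cAMP XS+) after overnight incubation; EC50 derived.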

A further experiment has as its system Mouse STC-1 cells. The experiment is described as follows: STC-1 GLP-1 assay (GLP-1 secretion). The conditions noted are these: Mouse STC-1 cells, GLP-1 secretion, 2 h; read-out: Mouse STC-1 HTRF GLP-1 Activity (EC50). The method, boiled down:
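Secreted active GLP-1 was measured by HTRF after overnight room-temperature incubation of supernatant with the conjugates. Supernatants came from a 2 h, 37° C. compound exposure (12-point half-log series) in HBSS with DPP-IV and protease inhibitors and 0.1% fatty acid free BSA. STC-1 cells had been seeded two days earlier in stripped-serum DMEM; EC50 reported.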

The target in experiment [2] is T1, mouse TGR5 receptor. Description: Mouse TGR5 HTRF cAMP production assay (HEK293-EBNA cells, Cisbio cAMP HiRange kit). The conditions noted are these: HEK293-EBNA cells overexpressing mouse TGR5, HTRF cAMP assay. The method, boiled down:
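cAMP accumulation was read by competitive HTRF after 1 h room-temperature compound treatment, with a further 1 h conjugate incubation. Cells were mouse TGR5-overexpressing HEK293-EBNA in serum-free DMEM plus 500 μM IBMX. Compounds ran as 12-point half-log series in duplicate, and EC50 values were reported.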

For the compound `N#Cc1ccc(CCNC(=O)[C@@H]2CCCN(c3cc(N4CCC(CO)CC4)nc(C(F)(F)F)n3)C2)cc1` [Compound 308, (R)—N-(4-cyanophenethyl)-1-(6-(4-(hydroxymethyl)piperidin-1-yl)-2-(trifluoromethyl)pyrimidin-4-yl)piperidine-3-carboxamide], the EC50 on mouse TGR5 receptor [1] is below 100 nM; with Mouse STC-1 cells, 100 to 999 nM.

Take `N#Cc1ccc(CCNC(=O)[C@@H]2CCN2c2cc(N3CCC(CO)CC3)nc(C(F)(F)F)n2)cc1` [Compound 219, (S)—N-(4-cyanophenethyl)-1-(6-(4-(hydroxymethyl)piperidin-1-yl)-2-(trifluoromethyl)pyrimidin-4-yl)azetidine-2-carboxamide]: the EC50 at mouse TGR5 receptor [1] and in the experiment with Mouse STC-1 cells was below 100 nM in each case.

For `N#Cc1ccc(CCNC(=O)[C@@H]2CCCN2c2cc(N3CCC(CCN)CC3)nc(C(F)(F)F)n2)cc1` [Compound 50, (S)-1-(6-(4-(2-aminoethyl)piperidin-1-yl)-2-(trifluoromethyl)pyrimidin-4-yl)-N-(4-cyanophenethyl)pyrrolidine-2-carboxamide], the EC50 was below 100 nM at mouse TGR5 receptor [1] and 1000 to 30000 nM in the experiment with Mouse STC-1 cells.

Regarding `N#Cc1ccc(CCNC(=O)[C@@H]2CCCN2c2cc(N3CCC(CCO)CC3)nc(C(F)(F)F)n2)cc1` [Compound 22], the EC50 on mouse TGR5 receptor [1] and with Mouse STC-1 cells was below 100 nM each time.

Turning to `N#Cc1ccc(CCNC(=O)[C@@H]2CCN2c2cc(N3CCC(CCO)CC3)nc(C(F)(F)F)n2)cc1` [Compound 223, (S)-N-(4-cyanophenethyl)-1-(6-(4-(2-hydroxyethyl)piperidin-1-yl)-2-(trifluoromethyl)pyrimidin-4-yl)azetidine-2-carboxamide], the EC50 on mouse TGR5 receptor [2], on mouse TGR5 receptor [1] and with Mouse STC-1 cells was below 100 nM throughout.

Turning to `COCC1CCN(c2cc(N3CCC[C@H]3C(=O)NCCc3ccc(C#N)cc3)nc(C(F)(F)F)n2)CC1` [Compound 24], the figures for the EC50 at mouse TGR5 receptor [1] and in the experiment on Mouse STC-1 cells were below 100 nM and 100 to 999 nM, respectively.

Consider `N#Cc1ccc(CCNC(=O)[C@@H]2CCCN2c2cc(N3CCC(CCC(=O)NCCS(=O)(=O)O)CC3)nc(C(F)(F)F)n2)cc1` [Compound 56, (S)-2-(3-(1-(6-(2-((4-cyanophenethyl)carbamoyl)pyrrolidin-1-yl)-2-(trifluoromethyl)pyrimidin-4-yl)piperidin-4-yl)propanamido)ethanesulfonic acid], for which the EC50 was below 100 nM on mouse TGR5 receptor [2] and 100 to 999 nM with Mouse STC-1 cells.

For `N#Cc1ccc(CCNC(=O)[C@@H]2CCCN2c2cc(N3CCC(OCC#CCS(=O)(=O)O)CC3)nc(C(F)(F)F)n2)cc1` [Compound 134, (S)-4-((1-(6-(2-((4-cyanophenethyl)carbamoyl)pyrrolidin-1-yl)-2-(trifluoromethyl)pyrimidin-4-yl)piperidin-4-yl)oxy)but-2-yne-1-sulfonic acid], the EC50 at mouse TGR5 receptor [2] is below 100 nM; with Mouse STC-1 cells, 100 to 999 nM.

Take `N#Cc1ccc(CCNC(=O)[C@@H]2CCN2c2cc(N3CCC(CCNC(=N)N)CC3)nc(C(F)(F)F)n2)cc1` [Compound 285, (S)-N-(4-cyanophenethyl)-1-(6-(4-(2-guanidinoethyl)piperidin-1-yl)-2-(trifluoromethyl)pyrimidin-4-yl)azetidine-2-carboxamide]: the concentration for a half-maximal effect (EC50) at mouse TGR5 receptor [2] and with Mouse STC-1 cells was below 100 nM throughout.

On to `N#Cc1ccc(CCNC(=O)[C@@H]2CCN2c2cc(N3CCC(CCCC(=O)NCS(=O)(=O)O)CC3)nc(C(F)(F)F)n2)cc1` [Compound 250, (S)-(4-(1-(6-(2-((4-cyanophenethyl)carbamoyl)azetidin-1-yl)-2-(trifluoromethyl)pyrimidin-4-yl)piperidin-4-yl)butanamido)methanesulfonic acid], for which the EC50 on mouse TGR5 receptor [2] and with Mouse STC-1 cells was below 100 nM throughout.

For the compound `COc1cc(C(F)(F)F)ccc1CCNC(=O)[C@@H]1CCCN1c1cc(N2CCC(CCCC(=O)NCCS(=O)(=O)O)CC2)nc(C(F)(F)F)n1` [Compound 57, (S)-2-(4-(1-(6-(2-((2-methoxy-4-(trifluoromethyl)phenethyl)carbamoyl)-pyrrolidin-1-yl)-2-(trifluoromethyl)-pyrimidin-4-yl)piperidin-4-yl)butanamido)ethanesulfonic acid], the EC50 on mouse TGR5 receptor [2] and in the experiment with Mouse STC-1 cells was below 100 nM in each case.

On to `O=C(O)CCC1CCN(c2cc(N3CC[C@H]3C(=O)NCCc3ccc(C(F)(F)F)cc3)nc(C(F)(F)F)n2)CC1` [Compound 232, (S)-3-(1-(2-(trifluoromethyl)-6-(2-((4-(trifluoromethyl)phenethyl)carbamoyl)azetidin-1-yl)pyrimidin-4-yl)piperidin-4-yl)propanoic acid], for which the EC50 on mouse TGR5 receptor [2] and in the experiment with Mouse STC-1 cells was below 100 nM each time.

`N#Cc1ccc(CCNC(=O)[C@@H]2CCN2c2cc(N3CCC(CCCC(=O)NCP(=O)(O)O)CC3)nc(C(F)(F)F)n2)cc1` [Compound 362, (S)-((4-(1-(6-(2-((4-cyanophenethyl)carbamoyl)azetidin-1-yl)-2-(trifluoromethyl)pyrimidin-4-yl)piperidin-4-yl)butanamido)methyl)phosphonic acid]: the concentration for a half-maximal effect (EC50) at mouse TGR5 receptor [2] and with Mouse STC-1 cells was below 100 nM in each case.

Regarding `N#Cc1ccc(CCNC(=O)[C@@H]2CCN2c2cc(N3CCC(CCNS(=O)(=O)CCNC(=O)[C@@H](N)CS(=O)(=O)O)CC3)nc(C(F)(F)F)n2)cc1` [Compound 363, (R)-2-amino-3-((2-(N-(2-(1-(6-((S)-2-((4-cyanophenethyl)carbamoyl)azetidin-1-yl)-2-(trifluoromethyl)pyrimidin-4-yl)piperidin-4-yl)ethyl)sulfamoyl)ethyl)amino)-3-oxopropane-1-sulfonic acid], the EC50 on mouse TGR5 receptor [2] and in the experiment with Mouse STC-1 cells was below 100 nM in each case.

`N#Cc1ccc(CCNC(=O)[C@@H]2CCN2c2cc(N3CCC(CCNC(=O)NCS(=O)(=O)O)CC3)nc(C(F)(F)F)n2)cc1` [Compound 270, (S)-(3-(2-(1-(6-(2-((4-cyanophenethyl)carbamoyl)azetidin-1-yl)-2-(trifluoromethyl)pyrimidin-4-yl)piperidin-4-yl)ethyl)ureido)-methanesulfonic acid]: the EC50 on mouse TGR5 receptor [2] and with Mouse STC-1 cells was below 100 nM each time.

With `N#Cc1ccc(CCNC(=O)[C@@H]2CCN2c2cc(N3CCC(CCNC(=O)NCCOCCNC(=O)CS(=O)(=O)O)CC3)nc(C(F)(F)F)n2)cc1` [Compound 356, (S)-1-(1-(6-(2-((4-cyanophenethyl)carbamoyl)azetidin-1-yl)-2-(trifluoromethyl)pyrimidin-4-yl)piperidin-4-yl)-4,12-dioxo-8-oxa-3,5,11-triazatridecane-13-sulfonic acid], the EC50 was below 100 nM at mouse TGR5 receptor [2] and 100 to 999 nM in the experiment on Mouse STC-1 cells.

For the compound `N#Cc1ccc(CCNC(=O)[C@@H]2CCCN2c2cc(N3CCC(CCNc4c(NCCC(=O)O)c(=O)c4=O)CC3)nc(C(F)(F)F)n2)cc1` [Compound 368, (S)-3-((2-((2-(1-(6-(2-((4-cyanophenethyl)carbamoyl)pyrrolidin-1-yl)-2-(trifluoromethyl)pyrimidin-4-yl)piperidin-4-yl)ethyl)amino)-3,4-dioxocyclobut-1-en-1-yl)amino)propanoic acid], the EC50 at mouse TGR5 receptor [2] was below 100 nM; in the experiment on Mouse STC-1 cells it was 100 to 999 nM.

`N#Cc1ccc(CCNC(=O)[C@@H]2CCCN2c2cc(N3CCC(CCNC(=O)NCCC(=O)NCCS(=O)(=O)O)CC3)nc(C(F)(F)F)n2)cc1` [Compound 113, (S)-2-(3-(3-(2-(1-(6-(2-((4-cyanophenethyl)carbamoyl)pyrrolidin-1-yl)-2-(trifluromethyl)pyrimidin-4-yl)piperidin-4-yl)ethyl)ureido)-propanamido)-ethanesulfonic acid]: the figures for the concentration for a half-maximal effect (EC50) on mouse TGR5 receptor [2] and with Mouse STC-1 cells were below 100 nM and 100 to 999 nM, respectively.

The record behind these values is US10654834B2 (Venenum Biodesign, LLC, priority 2016, dated 2020).
